Reference: US20080193428A1, “Composition and Method for Modulating and Maintaining Vaginal Bacterial Flora and Vaginal Acidity” (Shenzhen Phlora Biotechnology Limited, priority 2005, published 2008)

Tested on: lactobacilli
Experiment: Inhibition of growth and acid-production of lactobacilli at different pH
Type: cell-based

benzoic acid [benzoic acid and/or its sodium salt]
inhibition effect on the growth and acid-production of lactobacilli (under a relatively high pH value (e.g., pH>4.6)): became weak | inhibition effect on the growth and acid-production of lactobacilli (under a relatively low pH value (e.g., pH<4.0)): relatively strong inhibition effect
